Where two headings read alike, the source gives them in different places.
Key:
[1] = tested on: M5076 murine reticulosarcoma cells; assay: In vitro antiproliferative activity (% cell growth vs untreated control); type: cell-based
Description: (§1) The combinations were assayed in vitro on M5076 murine reticulosarcoma cells and in vivo on the same tumor cells implanted intramuscularly.

[2] = tested on: M5076 murine reticulosarcoma cells; assay: In vivo antitumor activity in mice implanted with M5076 tumor cells; design: species or system Mice C57BL/6; conditions: days 1, 4, 7 and 11, combination: + PNU 145156E 100 mg/kg ip 2 h prior; for A.U.C. % inhib. (inhibition of tumor growth): one week after last treatment; for TGD (tumor growth delay): time to reach one gram
Description: as §1
The antitumor activity was calculated in terms of:
% AUC: inhibition of tumor growth
T/C %: percentage of median increase in survival time
The A.U.C. (area under the curve) of the tumor growth was calculated by using the trapezoidal method, and is referred to the measurement of tumor growth performed one week after the last treatment. The percentage of inhibition (% A.U.C.) was calculated using the following formula: [formula]
The percentage of increase in survival time (T/C% ) was calculated using the following formula: [formula]
Mice were monitored according to guidelines and sacrificed when tumor weight exceeded 10% body weight. Tumor growth delay (TGD) is the time, in days, to reach one gram of tumor weight in treated animals as compared to control animals.
Evaluation of statistical significance was performed as follows: Student's Test for cytotoxic activity, Two-Way Anova for increase in survival time (T/C %) with combined treatment in comparison to the increase exerted separately by the two drugs, Tukey Test for tumor weight reduction (AUC % inhibition) with combined treatment in comparison to the reduction exerted separately by the two drugs.
The criterion for statistical significance was the 0.01 level ( )

[3] = days 1, 4, 7 and 11, combination: + PNU 145156E 100 mg/kg ip 2 h prior
Description: Mice C57BL/6 were implanted with M5076 murine reticulosarcoma cells. PNU 145156E was administered ip 2 h prior to cytotoxic drugs administered iv starting treatment 24 h after tumor implant. Treatments were performed at days 1, 4, 7 and 11.
The toxicological evaluation was performed in terms of body weight loss and spleen and liver reduction.

## CC(=O)O[C@H]1C(=O)[C@@]2(C)[C@H]([C@H](OC(=O)c3ccccc3)[C@]3(O)C[C@H](OC(=O)[C@H](O)[C@@H](NC(=O)c4ccccc4)c4ccccc4)C(C)=C1C3(C)C)[C@]1(OC(C)=O)CO[C@@H]1C[C@@H]2O [PACLITAXEL, paclitaxel]
[1]; Mus musculus, M5076, cytotoxic 6.25 ng/ml, PNU 145156E 0 ng/ml, 72 h, 37° C., read-out: % cell growth ± S.E.
  activity at 0.00625 µg/mL: 89 ± 1%
[1]; Mus musculus, M5076, cytotoxic 25 ng/ml, PNU 145156E 0 ng/ml, 72 h, 37° C., read-out: % cell growth ± S.E.
  activity at 0.025 µg/mL: 50 ± 7%
[1]; Mus musculus, M5076, cytotoxic 100 ng/ml, PNU 145156E 0 ng/ml, 72 h, 37° C., read-out: % cell growth ± S.E.
  activity at 0.1 µg/mL: 1 ± 1%
[1]; cytotoxic 6.25 ng/ml + PNU 145156E 50000 ng/ml, 72 h, 37° C.
  % cell growth ± S.E.: 87 ± 14%
[1]; cytotoxic 25 ng/ml + PNU 145156E 50000 ng/ml, 72 h, 37° C.
  % cell growth ± S.E.: 43 ± 1%
[1]; cytotoxic 100 ng/ml + PNU 145156E 50000 ng/ml, 72 h, 37° C.
  % cell growth ± S.E.: 2 ± 0%
[1]; in words, PNU 145156E 50000 ng/ml vs 0 ng/ml
  antiproliferative activity in the presence of PNU 145156E: unchanged in the presence of PNU 145156E
[2]; TX 33 mg/kg iv
  T/C % (median increase in survival time): 108%
  Tumor weight: 2.34 ± 0.9 gr
  A.U.C. % inhib. (inhibition of tumor growth): 77%
  TGD (tumor growth delay): 8 days
[2]; TX 40 mg/kg iv
  T/C % (median increase in survival time): 118%
  Tumor weight: 1.3 ± 0.7 gr
  A.U.C. % inhib. (inhibition of tumor growth): 93%
  TGD (tumor growth delay): 9 days
[3]; TX 33 mg/kg iv
  Toxic/total mice: 0/10
[3]; TX 40 mg/kg iv
  Toxic/total mice: 0/10

Source: US6214860A, “Synergistic antitumor composition containing a naphthalensulphonic acid derivative” (Pharmacia & Upjohn S.p.A., priority 1997, dated 2001)
